The numbers were not newly measured in PMC5488687 (The Biochemical journal, 2016), which cites them from elsewhere.

The structures appear in SMILES notation. Like-named read-outs stand apart in the source and are kept apart here.

For data set [1], the system named is cells with amplified centrosomes.
Data set [2] concerns neuroblastoma N1E-115 cells. To be noted: read-out: IC50, cell viability of N1E-115 cells.
Data set [3] relates to normal human dermal fibroblasts (NHDF). Particulars: read-out: IC50, cell viability of NHDF cells.
In data set [4] the test system is neuroblastoma N1E-115 cells.
Data set [5] concerns normal human dermal fibroblasts (NHDF).

Regarding `CCCc1cc(C(=O)N[C@H](Cc2ccc(-c3cccc(OC(F)(F)F)c3)nc2)C(=O)N[C@@H]2CCNC2)sc1C` [AZ82], the IC50 in the data set on KIFC1 (read-out: IC50, MT-stimulated KIFC1 ATPase activity) was 0.3 µM. For the same molecule, the “multipolar spindle formation and mitotic catastrophe” value in data set [1] was “triggered multipolar spindle formation and mitotic catastrophe”. Further, in the data set with KIFC1/MT complex, the “binding to KIFC1/MT complex versus KIFC1 or MT alone” value was “bound specifically to KIFC1/MT complex but did not interact directly with KIFC1 or MT”.

On to `O=C(O)c1cc(I)ccc1NC(=O)[C@H](Cc1ccccc1)NCc1ccccc1` [CW069], for which the IC50 is 75 µM in the data set with KIFC1 (read-out: IC50, KIFC1 ATPase activity); 86 µM in data set [2]; 187 µM in data set [3]. In addition, the “multipolar spindle formation in N1E-115 cells” value in data set [4] was “increased multipolar spindle formation”. In addition, the “effect on bipolar spindle formation in NHDF” value in data set [5] is given as “no effects”.
